Measured values as given in US20230083012A1, “DIHYDROPYRIMIDINE DERIVATIVES AND USES THEREOF IN THE TREATMENT OF HBV INFECTION OR OF HBV-INDUCED DISEASES” (priority 2019, published 2023).

Columns and labels:
HBV = assay: Anti-HBV activity in HepG2.2.15 cells (HBV DNA in culture medium by qPCR); assay type: cell-based; settings: Hepatitis B virus, HepG2.2.15, 144 h, HepG2.2.15 cells, 6 days treatment, HBV DNA in culture medium quantified by real-time PCR; read-out: EC50
Outline: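 HepG2.2.15 cells in 2% FBS medium at 37 °C were treated with compounds for 6 days, with medium and compound refreshed at day 3; 1:3 dilutions, 8 concentrations in triplicate, top 10 or 1 uM. HBV DNA in culture medium quantified by qPCR to derive EC50; CC50 from parallel plates (top 100 uM).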

[1] = Cytotoxicity determination in HepG2.2.15 cells (CCK-8 cell viability); assay type: cell-based; settings: human, 6 days treatment, CCK-8 assay, highest concentration 100 uM
Outline: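 HepG2.2.15 cells seeded at 5,000 cells/well in 2% FBS medium, exposed 6 days to compounds (8-point 1:3 dilutions from 100 uM, triplicate), refreshed at day 3. Viability read by CCK-8 after 2.5 h at 37° C, absorbance 450 nm with 630 nm reference; CC50 calculated.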

SMILES	EC50 (HBV)	CC50 at 6 days [1]
CCOC(=O)C1=C(CN2CC(F)(F)[C@@H]3CN(S(=O)(=O)[C@H]4C[C@H](C(=O)O)C4)C[C@@H]32)NC(c2nccs2)=N[C@H]1c1cccc(F)c1C (single isomer, unassigned) [Compound 194]	71.3 nM	36700 nM
CCOC(=O)C1=C(CN2CC(F)(F)C3C(=O)N(C[C@@H](CC)C(=O)O)C[C@@H]32)NC(c2nccs2)=N[C@H]1c1cccc(F)c1C (single isomer, unassigned) [Compound 182A]	23.9 nM	49600 nM
CCOC(=O)C1=C(CN2CC(F)(F)C3C2CN(C(C)=O)N3CCC(C)(C)C(=O)O)NC(c2nccs2)=N[C@H]1c1cccc(F)c1C (stereo partly drawn) [Compound 70, 4-(2-acetyl-4-(((S)-5-(ethoxycarbonyl)-6-(3-fluoro-2-methylphenyl)-2-(thiazol-2-yl)-3,6-dihydropyrimidin-4-yl)methyl)-6,6-difluorohexahydropyrrolo[3,2-c]pyrazol-1(2H)-yl)-2,2-dimethylbutanoic acid]	8.1 nM	27100 nM
CCOC(=O)C1=C(CN2CC(F)(F)C3C(=O)N(CC(C)(C)C(=O)O)CC32)NC(c2nccs2)=N[C@H]1c1cccc(F)c1C (some centres unmarked) [Compound 5]	22.7 nM	90100 nM
CCOC(=O)C1=C(CN2CC(F)(F)[C@@H]3C(=O)N(C[C@H](CC)C(=O)O)C[C@@H]32)NC(c2nccs2)=N[C@H]1c1cccc(F)c1C (single isomer, unassigned) [Compound 182B]	11.3 nM	33300 nM
CCOC(=O)C1=C(CN2CC(F)(F)[C@H]3[C@@H]2CN(C(C)=O)N3CCC(C)(C)C(=O)O)NC(c2nccs2)=N[C@H]1c1cccc(F)c1Cl (single isomer, unassigned) [Compound 81B, 4-((cis)-2-acetyl-4-((6-(2-chloro-3-fluorophenyl)-5-(ethoxycarbonyl)-2-(thiazol-2-yl)-3,6-dihydropyrimidin-4-yl)methyl)-6,6-difluorohexahydropyrrolo[3,2-c]pyrazol-1(2H)-yl)-2,2-dimethylbutanoic acid]	13 nM	35900 nM
CCOC(=O)C1=C(CN2CC(F)(F)[C@@H]3[C@H]2CN(C(N)=O)N3CCC(C)(C)C(=O)O)NC(c2nccs2)=N[C@H]1c1cccc(F)c1C (single isomer, unassigned) [Compound 76A]	11 nM	28200 nM
CCOC(=O)C1=C(CN2CC(F)(F)[C@@H]3CN(C(=O)CC(C)(C)C(=O)O)C(=O)[C@@H]32)NC(c2nccs2)=N[C@H]1c1cccc(F)c1C (single isomer, unassigned) [Compound 191]	13.5 nM	35900 nM
CCOC(=O)C1=C(CN2C[C@@H](F)[C@]3(F)C(=O)N(CC(C)(C)C(=O)O)C[C@H]23)NC(c2nccs2)=N[C@H]1c1cccc(F)c1C (single isomer, unassigned) [Compound 204D]	0.4 nM	48100 nM
[H][C@]1(N2CC[C@H]3[C@@H]2C(F)(F)CN3CC2=C(C(=O)OC)[C@H](c3cccc(F)c3F)N=C(c3nccs3)N2)C[C@@]2(C[C@@H](C(=O)O)C2)C1 (single isomer, unassigned) [Compound 120A]	12 nM	28100 nM
CCOC(=O)C1=C(CN2CC(F)(F)C3C(=O)N(C[C@H](C)C(=O)O)C[C@@H]32)NC(c2nccs2)=N[C@H]1c1cccc(F)c1C (single isomer, unassigned) [Compound 181B]	9.5 nM	69900 nM
CCOC(=O)C1=C(CN2CC(F)(F)C3CC(C(=O)O)CC32)NC(c2nccs2)=N[C@H]1c1cccc(F)c1C (stereo partly drawn) [Compound 2, (cis)-1-(((S)-5-(ethoxycarbonyl)-6-(3-fluoro-2-methylphenyl)-2-(thiazol-2-yl)-3,6-dihydropyrimidin-4-yl)methyl)-3,3-difluorooctahydrocyclo-penta[b]pyrrole-5-carboxylic acid]	4.1 nM	26700 nM
CCOC(=O)C1=C(CN2CC(F)(F)[C@@H]3C(=O)N(C[C@@H](C)C(=O)O)C[C@@H]32)NC(c2nccs2)=N[C@H]1c1cccc(F)c1C (single isomer, unassigned) [Compound 181A]	12.3 nM	52900 nM
CCOC(=O)C1=C(CN2CC(F)(F)[C@@H]3C(=O)N(CCC(C)(C)C(=O)O)C[C@@H]32)NC(c2nccs2)=N[C@H]1c1cccc(F)c1C (single isomer, unassigned) [Compound 193]	12.1 nM	48200 nM
CCOC(=O)C1=C(CN2CC(F)(F)[C@H]3[C@@H]2CCN3C2CCC(C(=O)O)CC2)NC(c2nccs2)=N[C@H]1c1cccc(F)c1C (single isomer, unassigned) [Compound 104B]	8 nM	> 6200 nM
Cc1c(F)cccc1[C@@H]1N=C(c2nccs2)NC(CN2CC(F)(F)[C@H]3[C@@H]2CCN3CCC(C)(C)C(=O)O)=C1C(=O)OC(C)C (single isomer, unassigned) [Compound 152]	61.8 nM	12700 nM

SMILES	EC50 (HBV)	CC50 at 6 days [1]
COC(=O)C1=C(CN2CC(F)(F)[C@@H]3[C@H]2CON3CCC(C)(C)C(=O)O)NC(c2nccs2)=N[C@H]1c1cccc(F)c1C (single isomer, unassigned) [Compound 160]	14 nM	100000 nM
CCOC(=O)C1=C(CN2CC(F)(F)[C@@H]3CN(C(=O)C(C)(C)C(=O)O)C[C@@H]32)NC(c2nccs2)=N[C@H]1c1cccc(F)c1C (single isomer, unassigned) [Compound 9A]	11.1 nM	57800 nM
CCOC(=O)C1=C(CN2CC(F)(F)[C@H]3[C@@H]2CC(C)N3CCC(C)(C)C(=O)O)NC(c2nccs2)=N[C@H]1c1cccc(F)c1C (single isomer, unassigned) [Compound 153]	6 nM	21800 nM
CCOC(=O)C1=C(CN2CC(F)(F)[C@@H]3CN(CC(C)(C)C(=O)O)C(=O)[C@@H]32)NC(c2nccs2)=N[C@H]1c1cccc(F)c1C (single isomer, unassigned) [Compound 13B]	3.5 nM	38600 nM
CCOC(=O)C1=C(CN2CC(F)(F)[C@@H]3C(=O)N(c4ccn(CCC(C)(C)C(=O)O)n4)C[C@@H]32)NC(c2nccs2)=N[C@H]1c1cccc(F)c1C (single isomer, unassigned) [Compound 187]	81.7 nM	33600 nM
CCOC(=O)C1=C(CN2CC(F)(F)[C@H]3[C@@H]2CC2(CC2)N3CCC(C)(C)C(=O)O)NC(c2nccs2)=N[C@H]1c1cccc(F)c1C (single isomer, unassigned) [Compound 154]	71 nM	48300 nM
CCOC(=O)C1=C(CN2CC(F)(F)[C@@H]3C(=O)N(CC(CC)(CC)C(=O)O)C[C@@H]32)NC(c2nccs2)=N[C@H]1c1cccc(F)c1C (single isomer, unassigned) [Compound 202]	23 nM	100000 nM
CCOC(=O)C1=C(CN2C[C@@H](F)[C@@]3(F)C(=O)N(CC(C)(C)C(=O)O)C[C@@H]23)NC(c2nccs2)=N[C@H]1c1cccc(F)c1C (single isomer, unassigned) [Compound 204A]	11.2 nM	88900 nM
CCOC(=O)C1=C(CN2CC(F)(F)[C@H]3[C@@H]2CN(C(C)=O)N3CCC(C)(C)C(=O)O)NC(c2nccs2)=N[C@H]1c1ccc(F)c(F)c1Cl (single isomer, unassigned) [Compound 77B, 4-((cis)-2-acetyl-4-((6-(2-chloro-3,4-difluorophenyl)-5-(ethoxycarbonyl)-2-(thiazol-2-yl)-3,6-dihydropyrimidin-4-yl)methyl)-6,6-difluorohexahydropyrrolo[3,2-c]pyrazol-1(2H)-yl)-2,2-dimethylbutanoic acid]	15 nM	17500 nM
CCOC(=O)C1=C(CN2CC(F)(F)[C@@H]3CN(C(N)=O)C[C@@H]32)NC(c2nccs2)=N[C@H]1c1cccc(F)c1C (single isomer, unassigned) [Compound 35]	13.3 nM	35200 nM
CCOC(=O)C1=C(CN2CC(F)(F)[C@H]3[C@@H]2CCN3C2CC3(CC(C(=O)O)C3)C2)NC(c2nccs2)=N[C@H]1c1cccc(F)c1C (single isomer, unassigned) [Compound 113]	2.2 nM	12500 nM
CCOC(=O)C1=C(CN2CC(F)(F)[C@@H]3CN(S(=O)(=O)NC(C)=O)C[C@@H]32)NC(c2nccs2)=N[C@H]1c1cccc(F)c1C (single isomer, unassigned) [Compound 32]	3.4 nM	31800 nM
CCOC(=O)C1=C(CN2CC(F)(F)[C@@H]3[C@H]2CON3CCC(C)(C)C(=O)O)NC(c2nccs2)=N[C@@H]1c1ccc(F)nc1C (single isomer, unassigned) [Compound 166, 4-((cis)-4-((5-(ethoxycarbonyl)-6-(6-fluoro-2-methylpyridin-3-yl)-2-(thiazol-2-yl)-3,6-dihydropyrimidin-4-yl)methyl)-6,6-difluorohexahydro-1H-pyrrolo[3,2-c]isoxazol-1-yl)-2,2-dimethylbutanoic acid]	59 nM	> 100000 nM
CCOC(=O)C1=C(CN2CC(F)(F)[C@H]3[C@@H]2CCN3[C@H]2C[C@H](CC(=O)O)C2)NC(c2nccs2)=N[C@H]1c1cccc(F)c1C (single isomer, unassigned) [Compound 123B]	9 nM	16100 nM
CCOC(=O)C1=C(CN2CC(F)(F)[C@@H]3[C@H]2CON3CCC(C)(C)C(=O)O)NC(c2nccs2)=N[C@H]1c1ccc(F)c(F)c1Cl (single isomer, unassigned) [Compound 163, (cis)-4-(4-((6-(2-chloro-3,4-difluorophenyl)-5-(ethoxycarbonyl)-2-(thiazol-2-yl)-3,6-dihydropyrimidin-4-yl)methyl)-6,6-difluorohexahydro-1H-pyrrolo[3,2-c]isoxazol-1-yl)-2,2-dimethylbutanoic acid]	2 nM	45600 nM
